Test results reported in patent publication US12391685B2, “Inhibitors of RNA-guided nuclease target binding and uses thereof” (THE BROAD INSTITUTE, INC., priority 2018, dated 2025).

Molecular target: SpCas9 (Streptococcus pyogenes serotype M1, UniProt Q99ZW2)
Assay: eGFP-disruption assay in U2OS.eGFP.PEST cells
Assay type: cell-based, S. pyogenes
Parameters: host or cells: U2OS.eGFP.PEST
Conditions: screen of structural analogs of BRD7087; 15 μM compound, 24 h, U2OS.eGFP.PEST cells
Procedure: SpCas9 nuclease activity in eGFP-disruption assay. Approximately 200,000 U2OS.eGFP-PEST cells were nucleofected following two different methods either by nucleofecting plasmids or RNP using the SE Cell Line 4D-Nucleofector™ X Kit (Lonza) according to the manufacturer's protocol. In the plasmid nucleofection method, cells were nucleofected either with 440 ng of SpCas9 (Addgene Plasmid #43861) or 400 ng of SpCas9 along with 40 ng of sgRNA (pFYF1320 eGFP Site #1, Addgene Plasmid #47511). Cells nucleofected only with SpCas9-expressing plasmid were used as the transfection control. In the RNP nucleofection method, either […] SpCas9 or 20 pmol preformed SpCas9:gRNA (eGFP Site #1) complex were nucleofected. Approximately 20,000 transfected cells/well were plated in 4 replicates in a 96-well plate (Corning® 3904). Cells were incubated with the indicated amount of compound or DMSO for 24 h post transfection. A DMSO solution of compound (20 mM) was resuspended in the 10% FBS containing growth media and thoroughly mixed before adding to the cells. Cells were then fixed using 4% paraformaldehyde and imaged with the HCS NuclearMask™ Blue Stain (Life Technologies) as the nuclear counter-staining agent. Imaging was performed with an ImageXpress Micro automated microscope (Molecular Devices) at 10× magnification under three excitation channels (blue, green and red) acquiring nine sites per well. Images were analyzed using MetaXpress software and data were plotted using GraphPad Prism 6.
The Z′-value was calculated using the equation (1), where σ1 and σ2 are the standard deviations of DMSO control and SpCas9:gRNA control respectively. μ1 and μ2 are the mean % GFP^− cell population for DMSO control and SpCas9:gRNA control, respectively.

Sequence of SpCas9 (Q99ZW2 whole entry): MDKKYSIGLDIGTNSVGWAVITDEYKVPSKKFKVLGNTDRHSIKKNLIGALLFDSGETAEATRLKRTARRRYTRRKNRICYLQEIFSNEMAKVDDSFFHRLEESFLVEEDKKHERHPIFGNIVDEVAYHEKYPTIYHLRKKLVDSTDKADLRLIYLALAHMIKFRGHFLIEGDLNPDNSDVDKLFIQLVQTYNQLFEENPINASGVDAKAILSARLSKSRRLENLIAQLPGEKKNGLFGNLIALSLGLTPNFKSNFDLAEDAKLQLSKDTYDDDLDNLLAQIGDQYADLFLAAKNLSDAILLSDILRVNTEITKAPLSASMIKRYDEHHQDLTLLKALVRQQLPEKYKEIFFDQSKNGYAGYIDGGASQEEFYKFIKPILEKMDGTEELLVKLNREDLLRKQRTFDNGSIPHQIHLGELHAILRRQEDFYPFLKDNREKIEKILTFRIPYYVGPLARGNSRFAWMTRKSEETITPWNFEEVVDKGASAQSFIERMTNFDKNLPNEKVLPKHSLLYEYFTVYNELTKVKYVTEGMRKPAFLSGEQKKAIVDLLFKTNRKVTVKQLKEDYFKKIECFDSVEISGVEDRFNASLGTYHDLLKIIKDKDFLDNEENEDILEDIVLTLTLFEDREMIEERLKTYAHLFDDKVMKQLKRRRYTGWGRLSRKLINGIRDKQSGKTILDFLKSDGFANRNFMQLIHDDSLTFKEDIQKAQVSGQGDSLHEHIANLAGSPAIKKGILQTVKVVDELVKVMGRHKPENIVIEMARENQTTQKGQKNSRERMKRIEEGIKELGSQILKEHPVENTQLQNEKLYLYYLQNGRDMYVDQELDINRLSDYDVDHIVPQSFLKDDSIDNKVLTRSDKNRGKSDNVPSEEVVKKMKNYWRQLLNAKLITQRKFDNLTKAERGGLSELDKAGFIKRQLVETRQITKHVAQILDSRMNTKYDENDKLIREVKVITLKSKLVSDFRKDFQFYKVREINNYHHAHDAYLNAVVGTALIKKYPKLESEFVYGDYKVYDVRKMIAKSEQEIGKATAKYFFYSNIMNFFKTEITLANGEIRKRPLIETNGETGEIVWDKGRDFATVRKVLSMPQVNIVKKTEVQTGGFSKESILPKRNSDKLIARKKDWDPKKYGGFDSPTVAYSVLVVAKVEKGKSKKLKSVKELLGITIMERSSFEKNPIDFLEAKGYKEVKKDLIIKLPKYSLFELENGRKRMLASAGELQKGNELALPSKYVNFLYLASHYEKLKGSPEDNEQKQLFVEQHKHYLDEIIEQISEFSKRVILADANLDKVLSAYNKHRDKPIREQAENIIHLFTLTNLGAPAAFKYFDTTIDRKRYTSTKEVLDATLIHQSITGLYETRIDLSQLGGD

| SMILES | Average Inhibition activity | Inhibition activity Rep 1 | Inhibition activity Rep 2 |
| --- | --- | --- | --- |
| OC[C@@H]1Nc2ccc(-c3ccccc3)cc2[C@@H]2[C@H]1CCN2Cc1ccc(F)cc1 [BRD-K90247032] | 49.3 | 47.6 | 51.1 |
| COc1ccccc1C#Cc1ccc2c(c1)[C@H]1NCC[C@H]1[C@@H](CO)N2 [BRD-K39870434] | 68.1 | 53.7 | 82.5 |
| COc1ccccc1C#Cc1ccc2c(c1)[C@H]1[C@H](CCN1C(=O)c1cccc(F)c1)[C@H](CO)N2 [BRD-K83261893] | 45.7 | 47.1 | 44.3 |
| O=C(C1CCCCC1)N1CC[C@@H]2[C@H]1c1cc(Br)ccc1N[C@@H]2CO [BRD-K20055065] | 70.7 | 67.5 | 73.9 |
| Cc1ccc(S(=O)(=O)N2CC[C@@H]3[C@H](CO)Nc4ccc(-c5cccc(C(=O)N(C)C)c5)cc4[C@@H]32)cc1 [BRD-K51395794] | 53.9 | 46.5 | 61.3 |
| O=C(CC1CC1)N1CC[C@@H]2[C@H]1c1cc(-c3ccc(F)cc3)ccc1N[C@@H]2CO [BRD-K03427362] | 49.4 | 48.3 | 50.6 |
| CCC(=O)N1CC[C@@H]2[C@H]1c1cc(C#Cc3ccc(F)cc3)ccc1N[C@@H]2CO [BRD-K49114971] | 56.1 | 49.0 | 63.1 |
| CCC(=O)N1CC[C@H]2[C@@H]1c1cc(C#Cc3ccccc3OC)ccc1N(C)[C@H]2CO [BRD-K31513357] | 66.7 | 59.8 | 73.6 |
| COc1ccc(C#Cc2ccc3c(c2)[C@H]2[C@H](CCN2C(=O)c2ccccc2F)[C@H](CO)N3C)cc1 [BRD-K56594357] | 57.9 | 55.8 | 59.9 |
| CN1c2ccc(C#Cc3ccc(F)cc3)cc2[C@@H]2[C@@H](CCN2C(=O)CN2CCOCC2)[C@H]1CO [BRD-K82266131] | 56.9 | 51.7 | 62.1 |
| O=S(=O)(c1cccc(F)c1)N1CC[C@@H]2[C@H](CO)Nc3ccc(C#Cc4ccccc4F)cc3[C@@H]21 [BRD-K12807496] | 60.8 | 50.9 | 70.7 |
| O=S(=O)(c1cccc(F)c1)N1CC[C@H]2[C@H](CO)Nc3ccc(C#Cc4ccccc4F)cc3[C@H]21 [BRD-K67297693] | 72.2 | 64.3 | 80.1 |
| COc1ccccc1-c1ccc2c(c1)[C@H]1[C@H](CCN1C(=O)CN1CCOCC1)[C@H](CO)N2C [BRD-K22244182] | 50.3 | 57.2 | 43.4 |
| COc1cccc(S(=O)(=O)N2CC[C@@H]3[C@H]2c2cc(C#Cc4cccnc4)ccc2N(C)[C@H]3CO)c1 [BRD-K04388421] | 51.2 | 49.1 | 53.3 |
| CN1c2ccc(-c3cccc(C#N)c3)cc2[C@H]2[C@H](CCN2C(=O)C2CCCCC2)[C@H]1CO [BRD-K53346571] | 52.7 | 49.1 | 56.3 |
| COc1ccc(S(=O)(=O)N2CC[C@@H]3[C@H](CO)N(C)c4ccc(-c5ccccc5F)cc4[C@@H]32)cc1 [BRD-K69451415] | 53.4 | 56.2 | 50.6 |
| O=C(c1ccccc1)N1CC[C@@H]2[C@H]1c1cc(C#CC3CCCCC3)ccc1N[C@@H]2CO [BRD-K92041481] | 68.3 | 57.8 | 78.8 |
| O=C(c1cccc(F)c1)N1CC[C@@H]2[C@H](CO)Nc3ccc(-c4ccccc4)cc3[C@@H]21 [BRD-K94204229] | 57.0 | 47.5 | 66.6 |
| COc1cccc(-c2ccc3c(c2)[C@@H]2[C@@H](CCN2C(=O)c2cnccn2)[C@@H](CO)N3)c1 [BRD-K11943259] | 58.8 | 53.0 | 64.6 |
| CN1c2ccc(-c3ccccc3F)cc2[C@@H]2[C@@H](CCN2C(=O)NC2CCCCC2)[C@H]1CO [BRD-K80765942] | 50.0 | 50.5 | 49.6 |
| O=S(=O)(c1cccc(F)c1)N1CC[C@@H]2[C@H]1c1cc(C#Cc3ccccc3F)ccc1N[C@@H]2CO [BRD-K14474387] | 61.3 | 56.1 | 66.4 |
| CN1c2ccc(C#Cc3cccnc3)cc2[C@H]2[C@H](CCN2C(=O)C2CCCCC2)[C@@H]1CO [BRD-K89354425] | 82.0 | 85.4 | 78.7 |
| CN1c2ccc(C#Cc3cccnc3)cc2[C@H]2[C@H](CCN2S(=O)(=O)c2ccccc2F)[C@@H]1CO [BRD-K58893765] | 62.6 | 67.8 | 57.4 |
| CN1c2ccc(C#Cc3cccnc3)cc2[C@@H]2[C@@H](CCN2C(=O)c2cccc(F)c2)[C@H]1CO [BRD-K46446619] | 64.6 | 63.4 | 65.9 |
| COCC(=O)N1CC[C@@H]2[C@H](CO)Nc3ccc(C#Cc4cccc(F)c4)cc3[C@@H]21 [BRD-K09759494] | 50.9 | 51.1 | 50.7 |
| COc1ccc(S(=O)(=O)N2CC[C@@H]3[C@@H](CO)N(C)c4ccc(-c5ccc(F)cc5)cc4[C@@H]32)cc1 [BRD-K16827616] | 60.5 | 76.4 | 44.6 |

Same assay, conditions: structural analogs of BRD0539, R2=a, R1 varied

| SMILES | decrease of activity with respect to BRD0539 |
| --- | --- |
| Cc1cccc(S(=O)(=O)N2CCC3C(CO)Nc4ccc(-c5ccccc5F)cc4C32)c1 (stereo not shown) [Compound 4] | 47% |
